According to patent US9278954B2, “Pyrrolidine derivatives, pharmaceutical compositions and uses thereof” (Boehringer Ingelheim International GmbH, priority 2013, dated 2016):

biological target: human ACC2 (Homo sapiens (Human), UniProt O00763); experiment: ACC2 assay (spectrophotometric 384 well assay, NADH-linked kinetic method); assay type: biochemical; conditions: hACC2 construct lacking the 128 N-terminal amino acids; 25° C., 340 nm over 15 minutes
Experimental: Spectrophotometric 384 Well Assay
Malonyl CoA formation by acetyl CoA carboxylases is stoichometrically linked to the consumption of ATP. ACC2 activity is measured in a NADH-linked kinetic method measuring ADP generated during the ACC reaction using a coupled lactate dehydrogenase/pyruvate kinase reaction.
The protein is then expressed in insect cells using a baculoviral expression system. Protein purification is performed by anion exchange.
All compounds are dissolved in dimethyl sulfoxide (DMSO) to a concentration of 10 mM.
The enzymatic reaction is then started by addition of a mixture of NADH, acetyl
Coenzyme A (both […].) and ATP (500 uM f.c.). The decrease of the optical density (slope S) is then determined at 25° C. at a wavelength of 340 nm over 15 minutes in a spectrophotometric reader.
Each assay microtiter plate contains wells with vehicle instead of compound as controls for the non-inhibited enzyme (100% CTL; ‘HIGH’) and wells without acetyl-CoA as controls for non-specific NADH degradation (0% CTL; ‘LOW’).

Chain of human ACC2 (O00763 129-2458): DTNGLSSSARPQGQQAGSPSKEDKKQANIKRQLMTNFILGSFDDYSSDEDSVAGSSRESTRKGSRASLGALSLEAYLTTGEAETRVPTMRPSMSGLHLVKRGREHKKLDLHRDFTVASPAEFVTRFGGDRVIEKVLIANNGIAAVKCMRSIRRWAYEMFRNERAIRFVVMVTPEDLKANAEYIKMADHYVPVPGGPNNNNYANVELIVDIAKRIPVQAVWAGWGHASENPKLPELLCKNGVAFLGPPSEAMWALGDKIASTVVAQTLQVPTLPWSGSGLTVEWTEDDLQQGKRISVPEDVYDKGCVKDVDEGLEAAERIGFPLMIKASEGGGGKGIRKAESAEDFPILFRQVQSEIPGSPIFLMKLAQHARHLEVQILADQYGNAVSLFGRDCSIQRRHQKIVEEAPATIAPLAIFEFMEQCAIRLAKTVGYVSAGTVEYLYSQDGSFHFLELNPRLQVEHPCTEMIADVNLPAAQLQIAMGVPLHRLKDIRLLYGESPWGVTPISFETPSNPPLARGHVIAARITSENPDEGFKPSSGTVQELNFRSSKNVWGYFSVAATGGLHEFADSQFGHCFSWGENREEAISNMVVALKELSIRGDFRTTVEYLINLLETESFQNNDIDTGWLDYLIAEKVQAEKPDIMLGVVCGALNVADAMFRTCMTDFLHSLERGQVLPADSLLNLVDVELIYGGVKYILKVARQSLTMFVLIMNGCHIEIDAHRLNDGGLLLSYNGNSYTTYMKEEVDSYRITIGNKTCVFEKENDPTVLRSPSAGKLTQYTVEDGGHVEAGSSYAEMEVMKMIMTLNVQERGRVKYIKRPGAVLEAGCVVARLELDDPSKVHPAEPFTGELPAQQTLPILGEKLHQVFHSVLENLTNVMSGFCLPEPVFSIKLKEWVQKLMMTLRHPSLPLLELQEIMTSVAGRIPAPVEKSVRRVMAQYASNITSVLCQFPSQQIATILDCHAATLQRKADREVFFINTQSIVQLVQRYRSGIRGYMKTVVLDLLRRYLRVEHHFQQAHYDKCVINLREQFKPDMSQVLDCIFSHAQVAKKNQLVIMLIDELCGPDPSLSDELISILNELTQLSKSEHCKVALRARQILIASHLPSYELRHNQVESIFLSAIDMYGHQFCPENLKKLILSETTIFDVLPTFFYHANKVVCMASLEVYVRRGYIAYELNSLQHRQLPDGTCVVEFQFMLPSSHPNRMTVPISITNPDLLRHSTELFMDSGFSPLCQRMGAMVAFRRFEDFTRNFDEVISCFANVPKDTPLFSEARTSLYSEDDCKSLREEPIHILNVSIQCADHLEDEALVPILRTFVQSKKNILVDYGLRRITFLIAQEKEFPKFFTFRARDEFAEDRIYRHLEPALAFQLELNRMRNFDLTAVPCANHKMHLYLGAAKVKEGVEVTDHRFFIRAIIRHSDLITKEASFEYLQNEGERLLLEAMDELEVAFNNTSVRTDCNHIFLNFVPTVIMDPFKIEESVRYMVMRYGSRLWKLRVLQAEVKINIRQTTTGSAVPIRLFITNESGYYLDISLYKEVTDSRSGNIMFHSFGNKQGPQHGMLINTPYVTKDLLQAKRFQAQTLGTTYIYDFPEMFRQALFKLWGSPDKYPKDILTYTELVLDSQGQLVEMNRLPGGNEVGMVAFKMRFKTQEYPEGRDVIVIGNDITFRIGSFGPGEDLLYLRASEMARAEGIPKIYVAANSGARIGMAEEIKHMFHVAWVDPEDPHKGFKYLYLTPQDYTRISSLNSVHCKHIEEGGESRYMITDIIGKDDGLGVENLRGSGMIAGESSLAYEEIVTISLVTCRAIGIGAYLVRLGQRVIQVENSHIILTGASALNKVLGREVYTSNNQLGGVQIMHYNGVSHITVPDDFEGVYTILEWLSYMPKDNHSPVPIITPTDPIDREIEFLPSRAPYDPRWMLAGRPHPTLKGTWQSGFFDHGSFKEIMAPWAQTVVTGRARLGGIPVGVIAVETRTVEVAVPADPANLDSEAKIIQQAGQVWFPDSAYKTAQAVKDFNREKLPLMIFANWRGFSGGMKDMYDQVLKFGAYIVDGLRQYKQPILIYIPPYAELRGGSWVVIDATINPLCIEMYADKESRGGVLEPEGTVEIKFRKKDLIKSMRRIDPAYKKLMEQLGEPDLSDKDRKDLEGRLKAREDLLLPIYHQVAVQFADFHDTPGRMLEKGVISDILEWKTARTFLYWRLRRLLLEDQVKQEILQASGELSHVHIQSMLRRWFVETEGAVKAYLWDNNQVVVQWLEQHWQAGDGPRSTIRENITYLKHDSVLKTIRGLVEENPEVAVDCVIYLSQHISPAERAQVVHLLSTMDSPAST

| IC50 [nM] | Structure (SMILES) |
| --- | --- |
| 259 | CC(C(=O)NC1CC1C)c1ccc(O[C@@H]2CCN(c3ncnc(OCC(C)(C)O)c3F)C2)cc1 (stereo partly drawn) [Example 3.2] |
| 288 | CCNC(=O)C(C)c1ccc(O[C@@H]2CCN(c3ccc(OCC)cc3)C2)cc1 (stereo partly drawn) [Example 4.1, 2-(4-[1-(4-Ethoxyl-phenyl)-(R)-pyrrolidin-3-yloxy]-phenyl)-N-ethyl-propionamide] |
| 600 | CCNC(=O)C(C)c1ccc(O[C@@H]2CCN(c3ccc(OC4CC4)cc3C)C2)cc1 (stereo partly drawn) [Example 7.29] |
| 910 | CCNC(=O)C(C)c1ccc(O[C@@H]2CCN(c3ccc(OC4CC4)cn3)C2)cc1 (stereo partly drawn) [Example 8.4] |
| 1030 | CCCNc1ncnc(N2CC[C@@H](Oc3ccc(C(C)C(=O)NCC)cc3)C2)c1F (stereo partly drawn) [Example 3.12] |
| 352 | CC(C(=O)Nc1cccnc1)c1ccc(O[C@@H]2CCN(c3nc(N(C)C)ncc3F)C2)cc1 (stereo partly drawn) [Example 3.6] |
| 821 | CCNC(=O)C(C)c1ccc(O[C@@H]2CCN(c3cccc(C)n3)C2)cc1 (stereo partly drawn) [Example 7.33] |
| 190 | CCNC(=O)C(C)c1ccc(O[C@@H]2CCN(c3ccc(OCC4CC4(F)F)cn3)C2)cc1 (stereo partly drawn) [Example 7.3] |
| 575 | CCNC(=O)C(C)c1ccc(O[C@@H]2CCN(c3ccnc(N(C)C4CC4)n3)C2)cc1 (stereo partly drawn) [Example 2.5] |
| 318 | CC(C(=O)Nc1cccnc1)c1ccc(O[C@@H]2CCN(c3ncnc(OCC(C)(C)O)c3Cl)C2)cc1 (stereo partly drawn) [Example 3.5] |
| 622 | CCNC(=O)C(C)c1ccc(O[C@@H]2CCN(c3ncnc(OCC(C)(C)O)c3F)C2)cc1 (stereo partly drawn) [Example 3.8] |
| 739 | CCCNc1ncnc(N2CC[C@@H](Oc3ccc(C(C)C(=O)NC4CC4C)cc3)C2)c1F (stereo partly drawn) [Example 3.9] |
| 543 | CCNC(=O)C(C)c1ccc(O[C@@H]2CCN(c3ncc(OC(C)C)cc3F)C2)cc1 (stereo partly drawn) [Example 8.3] |
| 224 | CCNC(=O)C(C)c1ccc(O[C@@H]2CCN(c3cccc(C(F)(F)F)c3)C2)cc1 (stereo partly drawn) [Example 7.4] |
| 229 | CCNC(=O)C(C)c1ccc(O[C@@H]2CCN(c3ccc(F)c(C(F)(F)F)c3)C2)cc1 (stereo partly drawn) [Example 7.6] |
| 575 | CCNC(=O)C(C)c1ccc(O[C@@H]2CCN(c3ccc(OCC)cc3F)C2)cc1 (stereo partly drawn) [Example 4.2] |
| 353 | CCNC(=O)C(C)c1ccc(O[C@@H]2CCN(c3ccc(F)c(C(F)(F)F)n3)C2)cc1 (stereo partly drawn) [Example 8.2] |
| 280 | CCCNc1ncnc(N2CC[C@@H](Oc3ccc(C(C)C(=O)NC4CC4)cc3)C2)c1F (stereo partly drawn) [Example 3.3] |

Continued, molecule first:

| Structure (SMILES) | IC50 [nM] |
| --- | --- |
| C=CCNC(=O)C(C)c1ccc(O[C@@H]2CCN(c3ncnc(OCC(C)(C)O)c3Cl)C2)cc1 (stereo partly drawn) [Example 1.25] | 322 |
| CC(C(=O)NCC(F)(F)F)c1ccc(O[C@@H]2CCN(c3ncnc(OCC(C)(F)F)c3F)C2)cc1 (stereo partly drawn) [Example 1.64] | 658 |
| CC(C)NC(=O)C(C)c1ccc(O[C@@H]2CCN(c3ccc(OCC4CC4(F)F)cn3)C2)cc1 (stereo partly drawn) [Example 1.63] | 652 |
| CC(C(=O)NCC(F)F)c1ccc(O[C@@H]2CCN(c3ncnc(OCC(C)(C)O)c3Cl)C2)cc1 (stereo partly drawn) [Example 1.36] | 413 |
| CNC(=O)C(C)c1ccc(O[C@@H]2CCN(c3nc(N(C)C)ncc3F)C2)cc1 (stereo partly drawn) [Example 1.56] | 579 |
| CC(C(=O)NCC1CC1)c1ccc(O[C@@H]2CCN(c3ncnc(OCC(C)(C)O)c3Cl)C2)cc1 (stereo partly drawn) [Example 1.83] | 1070 |
| CC(C(=O)NCC(F)F)c1ccc(O[C@@H]2CCN(c3ncnc(OCC(C)(C)O)c3Cl)C2)cc1 (single isomer, unassigned) [6.5 isomer 1] | 135 |
| CC(C(=O)NC1CC1C)c1ccc(O[C@@H]2CCN(c3ccc(OCC4CC4(F)F)cn3)C2)cc1 (stereo partly drawn) [Example 1.10] | 205 |
| CCNC(=O)C(C)c1ccc(O[C@@H]2CCN(c3ccc(OC4CCC4)cc3)C2)cc1 (stereo partly drawn) [Example 7.1, 2-(4-[1-(4-Cyclobutoxy-phenyl)-(R)-pyrrolidin-3-yloxy]-phenyl)-N-ethyl-propionamide] | 41 |
| CC(C(=O)NC1CCC1)c1ccc(O[C@@H]2CCN(c3ncnc(OCC(C)(F)F)c3F)C2)cc1 (stereo partly drawn) [Example 1.66] | 687 |
| CC(C(=O)NC1CC1C)c1ccc(O[C@@H]2CCN(c3ncnc(OCC(C)(C)O)c3Cl)C2)cc1 (single isomer, unassigned) [6.4 isomer 2] | 681 |
| CC(C(=O)NC1CC1C)c1ccc(O[C@@H]2CCN(c3ncnc(OCC(C)(C)O)c3Cl)C2)cc1 (stereo partly drawn) [Example 1.26] | 325 |
| C=C(C)CNC(=O)C(C)c1ccc(O[C@@H]2CCN(c3ncnc(OCC(C)(F)F)c3F)C2)cc1 (stereo partly drawn) [Example 1.53] | 538 |
| CC(C(=O)NC1CC1C)c1ccc(O[C@@H]2CCN(c3ccc(OCC4CC4(F)F)cn3)C2)cc1 (stereo partly drawn) [Example 1.12] | 220 |
| CCNC(=O)C(C)c1ccc(O[C@@H]2CCN(c3ncnc(OCC(C)(C)O)c3Cl)C2)cc1 (stereo partly drawn) [Example 1.17] | 272 |
| CC(C(=O)NC1CCC1)c1ccc(O[C@@H]2CCN(c3ccc(OCC4CC4(F)F)cn3)C2)cc1 (stereo partly drawn) [Example 1.82] | 940 |
| CC[C@@H](C)NC(=O)C(C)c1ccc(O[C@@H]2CCN(c3ncnc(OCC(C)(C)O)c3Cl)C2)cc1 (stereo partly drawn) [Example 1.47] | 472 |
| C=CCCNC(=O)C(C)c1ccc(O[C@@H]2CCN(c3ccnc(NCCC)c3F)C2)cc1 (stereo partly drawn) [Example 1.71] | 779 |
| CCNC(=O)C(C)c1ccc(O[C@@H]2CCN(c3ncnc(OCC(C)(C)O)c3Cl)C2)cc1 (single isomer, unassigned) [6.3 isomer 2] | 1100 |
| CC(C(=O)NC1CCOCC1)c1ccc(O[C@@H]2CCN(c3ncnc(OCC(C)(C)O)c3Cl)C2)cc1 (stereo partly drawn) [Example 1.91] | 2920 |
| CC(C(=O)NC1CCC1)c1ccc(O[C@@H]2CCN(c3nc(N(C)C)ncc3F)C2)cc1 (stereo partly drawn) [Example 1.78] | 878 |
| CC(C)NC(=O)C(C)c1ccc(O[C@@H]2CCN(c3ncnc(OCC(C)(C)O)c3Cl)C2)cc1 (stereo partly drawn) [Example 1.49] | 492 |
| C=C(C)CNC(=O)C(C)c1ccc(O[C@@H]2CCN(c3ccc(OCC4CC4(F)F)cn3)C2)cc1 (stereo partly drawn) [Example 1.37] | 418 |
| CC(C(=O)NC1CC1)c1ccc(O[C@@H]2CCN(c3nc(N(C)C)ncc3F)C2)cc1 (stereo partly drawn) [Example 1.7] | 170 |

| Structure (SMILES) | IC50 [nM] |
| --- | --- |
| C#CCNC(=O)C(C)c1ccc(O[C@@H]2CCN(c3ncnc(OCC(C)(F)F)c3F)C2)cc1 (stereo partly drawn) [Example 1.42] | 441 |
| CC(C(=O)NCC(F)(F)F)c1ccc(O[C@@H]2CCN(c3ccc(OCC4CC4(F)F)cn3)C2)cc1 (stereo partly drawn) [Example 1.62] | 637 |
| CC(=O)Nc1nc(CNC(=O)C(C)c2ccc(O[C@@H]3CCN(c4ncnc(OCC(C)(F)F)c4F)C3)cc2)cs1 (stereo partly drawn) [Example 1.87] | 1380 |
| CC[C@@H](C)NC(=O)C(C)c1ccc(O[C@@H]2CCN(c3ccc(OCC4CC4(F)F)cn3)C2)cc1 (stereo partly drawn) [Example 1.58] | 598 |
| CC(CO)NC(=O)C(C)c1ccc(O[C@@H]2CCN(c3nc(N(C)C)ncc3F)C2)cc1 (stereo partly drawn) [Example 1.77] | 849 |
| CCCNc1nccc(N2CC[C@@H](Oc3ccc(C(C)C(=O)NC4CCC4)cc3)C2)c1F (stereo partly drawn) [Example 1.41] | 438 |
| CC(C(=O)NC1CC1C)c1ccc(O[C@@H]2CCN(c3nc(N(C)C)ncc3F)C2)cc1 (single isomer, unassigned) [6.2 isomer 2] | 177 |
| CC(C(=O)NCC(F)F)c1ccc(O[C@@H]2CCN(c3nc(N(C)C)ncc3F)C2)cc1 (stereo partly drawn) [Example 1.43] | 443 |
| CCNC(=O)C(C)c1ccc(O[C@@H]2CCN(c3ncnc(OCC(C)(C)O)c3Cl)C2)cc1 (single isomer, unassigned) [6.3 isomer 1] | 95 |
| CC(C(=O)NC1CC1C)c1ccc(O[C@@H]2CCN(c3ncnc(OCC(C)(C)O)c3Cl)C2)cc1 (single isomer, unassigned) [6.4 isomer 3] | 127 |
| C=C(C)CNC(=O)C(C)c1ccc(O[C@@H]2CCN(c3ncnc(OCC(C)(C)O)c3Cl)C2)cc1 (stereo partly drawn) [Example 1.23] | 315 |
| C=C(C)CNC(=O)C(C)c1ccc(O[C@@H]2CCN(c3ccnc(NCCC)c3F)C2)cc1 (stereo partly drawn) [Example 1.18] | 286 |
| CCCNc1nccc(N2CC[C@@H](Oc3ccc(C(C)C(=O)Nc4cccnc4)cc3)C2)c1F (stereo partly drawn) [Example 1.35] | 410 |
| CCNC(=O)C(C)c1ccc(O[C@@H]2CCN(c3ncnc(OCC(C)(F)F)c3F)C2)cc1 (stereo partly drawn) [Example 1.30] | 378 |
| CCCNc1nccc(N2CC[C@@H](Oc3ccc(C(C)C(=O)NCC(F)F)cc3)C2)c1F (stereo partly drawn) [Example 1.21] | 309 |
| CCCNc1nccc(N2CC[C@@H](Oc3ccc(C(C)C(=O)NC4CC4C)cc3)C2)c1F (single isomer, unassigned) [Example 1.3] | 101 |
| CC(C(=O)NCC1COC1)c1ccc(O[C@@H]2CCN(c3ncnc(OCC(C)(C)O)c3Cl)C2)cc1 (stereo partly drawn) [Example 1.85] | 1220 |
| CCCNc1nccc(N2CC[C@@H](Oc3ccc(C(C)C(=O)NCC4CC(F)(F)C4)cc3)C2)c1F (stereo partly drawn) [Example 1.92] | 3700 |
| CC(C(=O)NC1CC1C)c1ccc(O[C@@H]2CCN(c3ncnc(OCC(C)(F)F)c3F)C2)cc1 (stereo partly drawn) [Example 1.22] | 311 |
| CCCNC(=O)C(C)c1ccc(O[C@@H]2CCN(c3ccnc(NCCC)c3F)C2)cc1 (stereo partly drawn) [Example 1.32] | 402 |
| C=CCNC(=O)C(C)c1ccc(O[C@@H]2CCN(c3ncnc(OCC(C)(F)F)c3F)C2)cc1 (stereo partly drawn) [Example 1.45] | 463 |
| CCCNc1nccc(N2CC[C@@H](Oc3ccc(C(C)C(=O)NC4COC4)cc3)C2)c1F (stereo partly drawn) [Example 1.61] | 626 |
| CC(C(=O)NC[C@@H](C)O)c1ccc(O[C@@H]2CCN(c3ccc(OCC4CC4(F)F)cn3)C2)cc1 (stereo partly drawn) [Example 1.88] | 1780 |
| C#CCNC(=O)C(C)c1ccc(O[C@@H]2CCN(c3ccnc(NCCC)c3F)C2)cc1 (stereo partly drawn) [Example 1.16] | 266 |
